# From US7122624B2, “Parathyroid hormone receptor ligands” (The United States of America as represented by the …, priority 1999, dated 2006)
# Like-named read-outs stand apart in the source and are kept apart here. Non-standard residues stand in square brackets, D forms with d. Residues, ends and D or L forms follow the SMILES beside them. Tyr(3-I) = N[C@@H](Cc1ccc(O)c(I)c1)C(=O)O; Nle = CCCC[C@H](N)C(=O)O
# How the values were obtained:
# human PTH1 receptor [1] = target: T1, human PTH1 receptor (Homo sapiens, UniProt Q03431); assay: [125I]TIP(7–39) saturation and kinetic binding to the human PTH1 receptor in HEK293 cell membranes; set-up: expressed in transfected cells
# T1 sequence (Q03431 27-593): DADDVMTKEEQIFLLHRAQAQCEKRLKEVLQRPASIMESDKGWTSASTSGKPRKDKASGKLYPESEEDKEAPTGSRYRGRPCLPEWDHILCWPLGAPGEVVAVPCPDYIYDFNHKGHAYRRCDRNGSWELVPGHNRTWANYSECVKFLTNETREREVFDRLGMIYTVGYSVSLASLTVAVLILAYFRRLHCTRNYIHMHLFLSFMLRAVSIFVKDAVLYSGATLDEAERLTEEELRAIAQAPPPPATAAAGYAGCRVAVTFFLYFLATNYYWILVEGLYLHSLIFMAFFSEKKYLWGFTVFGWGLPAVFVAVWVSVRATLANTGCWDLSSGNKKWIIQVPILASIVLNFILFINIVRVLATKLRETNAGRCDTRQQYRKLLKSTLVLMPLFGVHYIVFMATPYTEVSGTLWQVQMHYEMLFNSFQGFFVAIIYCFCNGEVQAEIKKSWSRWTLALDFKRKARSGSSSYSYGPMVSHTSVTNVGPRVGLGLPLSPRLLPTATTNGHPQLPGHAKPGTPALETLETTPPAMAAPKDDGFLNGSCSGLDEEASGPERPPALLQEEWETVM
# Method: Binding of [^125I]TIP(7–39) to HEK293 membranes expressing the PTH1 receptor (FIGS. 21 and 22) was performed using rapid filtration to separate bound and free radioligand as described in Examples, using the assay buffer described above. Incubations were carried out in 96-well polypropylene plates. The incubation mixture was transferred to a polyvinylidene fluoride filtration plate (MAHVN45, Millipore, Bedford, Mass.) and the membranes collected by rapid filtration using a Millipore Multiscreen vacuum manifold. In saturation experiments, varying concentrations of [^125I]TIP(7–39) were incubated in triplicate with 10 μg membranes in the absence or presence of 1 μM unlabeled TIP(7–39) (for measurement of total binding and non-specific binding, respectively) for 1 hour at 21° C. In radioligand association experiments, radioligand and buffer were brought to 21° C. by incubation in a water bath for 15 minutes. Similarly pre-warmed membranes were then added to the wells at various time points and the assay wells harvested simultaneously. Non-specific binding in these experiments was defined using 300 nM unlabeled TIP(7–39), incubated with membranes and radioligand for 1 minute and 60 minutes. In the experiment in FIG. 23 a second, unlabeled ligand was included in the assay incubation in order to estimate the association and dissociation rate constants of the unlabeled ligand (see below). In dissociation experiments radioligand and membranes were equilibrated for 60 minutes prior to addition of unlabeled TIP(7–39) (300 nM final concentration) at various time points. All time points were harvested simultaneously. (As a result the shorter time points of the time course were equilibrated with radioligand for between 1 and 2 hours.) Non-specific binding was defined using 300 nM unlabeled TIP(7–39), which was included in the equilibration phase of the assay.
# [^125I]TIP(7–39) saturation of the PTH1 receptor was analyzed as follows: First, non-specific binding (measured in the presence of 1 μM TIP(7–39)) was estimated as a fraction of the free radioligand concentration by linear regression. The values of KD and Bmax were obtained by fitting total binding data (measured in the absence of unlabeled ligand) to the following equation using Prism 2.01:
# [^125I]TIP(7–39) association data (total binding) were fitted to a bi-exponential association equation to account for association to specific and non-specific sites (FIG. 23). This procedure was used because the value of non-specific binding measured after 60 minutes was slightly greater than the value measured after 1 minute. In the analysis the equilibrium level of non-specific binding was fixed at that measured at 60 minutes. The observed association rate constant for non-specific binding was high (>2 min^−1). The observed association rate of specific radioligand (L) binding (kon(obs)) was fitted by linear regression to the equation kon(obs)=koff+kon[L] where kon and koff are the association and dissociation rate constants respectively. [^125I]TIP(7–39) dissociation data were fitted to a mono-exponential dissociation equation.
# The association and dissociation rate constants of unlabeled ligands were determined using the method devised by Motulsky and Mahan, Mol Pharmacol 25, 1–9, 1984, in which association of a radiolabeled antagonist ([^125I]TIP(7–39)) is measured in the presence of a fixed concentration of the unlabeled ligand. […]
# PTH2 receptor [2] = target: T2, PTH2 receptor (Homo sapiens, UniProt P49190); assay: cAMP accumulation in HEK293 cells stably expressing the human PTH2 receptor (293PTH2); format: cell-based; set-up: expressed in transfected cells; conditions: 1 μM peptide
# T2 sequence (P49190 25-550): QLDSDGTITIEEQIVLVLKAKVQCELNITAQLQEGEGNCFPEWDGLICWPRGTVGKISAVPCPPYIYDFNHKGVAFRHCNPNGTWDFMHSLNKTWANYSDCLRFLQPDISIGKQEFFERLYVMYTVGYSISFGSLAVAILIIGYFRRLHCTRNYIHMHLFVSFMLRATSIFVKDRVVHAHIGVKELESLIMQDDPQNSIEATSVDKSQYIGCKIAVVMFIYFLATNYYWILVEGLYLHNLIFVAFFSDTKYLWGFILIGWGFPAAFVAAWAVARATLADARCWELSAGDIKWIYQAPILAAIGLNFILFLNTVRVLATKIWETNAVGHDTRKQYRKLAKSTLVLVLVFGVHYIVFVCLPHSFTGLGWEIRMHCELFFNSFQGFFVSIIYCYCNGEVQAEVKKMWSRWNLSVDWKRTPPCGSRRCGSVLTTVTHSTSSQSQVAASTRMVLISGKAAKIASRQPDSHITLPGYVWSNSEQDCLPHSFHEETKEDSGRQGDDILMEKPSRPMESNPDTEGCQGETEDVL
# Method: COS-7 cells were grown as previously described in Clark et al. For cAMP accumulation assays COS-7 cells were transfected as previously described in Clark et al. except that transfections were performed in 10 cm tissue culture dishes using 10 μg of plasmid DNA. The cells were transferred following trypsinization to 96-well plates at a density of 50,000 cells/well the following day. Cells were used for cAMP accumulation assays three days after transfection.
# Ligand-stimulated accumulation of cAMP was measured as described in Examples, using a radioimmunoassay to quantify cAMP (Clark et al., supra).
# For cAMP accumulation data y is the amount of cAMP produced at a given peptide concentration, min is the cAMP level in the absence of ligand and max is the maximum level produced. […] Statistical comparison of multiple means was performed initially by single-factor analysis of variance followed by post-hoc analysis with the Newman-Keuls test. Statistical comparison of two means was performed using a two-tailed Student's t-test.
# human PTH1 receptor [3] = target: T1, human PTH1 receptor; assay: cAMP accumulation in HEK293 cells stably expressing the human PTH1 receptor (293PTH1); format: cell-based; set-up: expressed in transfected cells
# [4] = target: T3, C-terminal hemaglutinin-tagged human PTH1 receptor (Homo sapiens, UniProt Q03431); assay: cAMP accumulation in COS-7 cells expressing a C-terminal hemaglutinin-tagged human PTH1 receptor; format: cell-based; conditions: COS-7; five experiments; read-out: Emax, % of the maximal response to rPTH(1–34)
# T3 sequence (Q03431 27-593): T1 sequence (Q03431 27-593)
# PTH2 receptor [5] = target: T2, PTH2 receptor; assay: cAMP accumulation in COS-7 cells transiently expressing the human PTH2 receptor; format: cell-based; set-up: expressed in transfected cells; host or cells: COS-7 (transient); conditions: COS-7
# Excerpt: Cell culture supplies were obtained from Life Technologies (Frederick, Md.) except for fetal bovine serum which was from Sigma (St. Louis, Mo.).
# The constructs containing the cDNA sequences of the human PTH2 receptor and β-galactosidase have been previously described.
# All peptides were purchased from either Bachem (Torrance, Calif.) or Peninsula Laboratories (Belmont, Calif.). The letters ‘b,’ ‘r’ and ‘h’ designate the peptide sequence as bovine, rat and human, respectively. […] [α-^32P]dCTP was purchased from ICN Biomedicals (Costa Mesa, Calif.). Bovine hypothalamic extract was prepared by acid extraction, gel-filtration and reverse-phase HPLC as previously described. […] Antagonist inhibitory potency was examined by measuring the concentration-dependence of rPTH(1–34)-stimulated cAMP accumulation in the presence and absence of antagonist.
# Statistical comparison of two sample means was evaluated using the two-tailed Student's t-test. […] Antagonist inhibitory potency was quantified using the pA2, value, the negative logarithm of the concentration of antagonist that produces a two-fold decrease of agonist EC50. This was calculated using the following equation: pA2=((EC50/EC50′)−1)−log [antagonist]
# human PTH1 receptor [6] = target: T1, human PTH1 receptor; set-up: expressed in transfected cells; host or cells: COS-7 (transient); conditions: cited from earlier work
compound,measurement,setting,value
CSCC[C@H](NC(=O)[C@H](Cc1ccc(O)c(I)c1)NC(=O)[C@H](CO)NC(=O)[C@H](CC(N)=O)NC(=O)[C@H](CC(C)C)NC(=O)[C@H](Cc1c[nH]c2ccccc12)NC(=O)[C@H](Cc1c[nH]cn1)NC(=O)[C@H](CCCNC(=N)N)NC(=O)[C@H](CCCNC(=N)N)NC(=O)[C@H](CCC(=O)O)NC(=O)[C@H](CC(C)C)NC(=O)[C@H](C)NC(=O)[C@H](C)NC(=O)[C@H](CC(C)C)NC(=O)[C@H](CC(C)C)NC(=O)[C@H](CCCNC(=N)N)NC(=O)[C@H](C)NC(=O)[C@H](CCCNC(=N)N)NC(=O)[C@H](CCC(=O)O)NC(=O)[C@H](CCCNC(=N)N)NC(=O)[C@H](Cc1ccccc1)NC(=O)[C@H](C)NC(=O)[C@H](C)NC(=O)[C@@H](N)CC(=O)O)C(=O)N[C@@H](Cc1c[nH]cn1)C(=O)N[C@@H](CCCCN)C(=O)N[C@@H](CC(C)C)C(=O)N[C@@H](CC(C)C)C(=O)N[C@H](C(=O)N[C@@H](CC(C)C)C(=O)N[C@@H](CC(=O)O)C(=O)N[C@@H](C)C(=O)N1CCC[C@H]1C(=O)O)C(C)C [[^125I]TIP(7–39)] (H-DAAFRERARLLAALERRHWLNS[Tyr(3-I)]MHKLLVLDAP-OH; N-terminus and C-terminus assumed),koff,"human PTH1 receptor [1]; directly measured from dissociation time course, read-out: dissociation rate constant (k2) (converted)",0.00085 s⁻¹
same,koff,"human PTH1 receptor [1]; estimate from the plot of kon(obs) vs. concentration of radioligand, read-out: dissociation rate constant (converted)",0.00128 s⁻¹
same,kon,"human PTH1 receptor [1]; held constant in Equation 4 analysis, read-out: association rate constant (k1) (converted)",1.48e+06 M⁻¹ s⁻¹
same,Bmax,"human PTH1 receptor [1]; saturation experiments, n=3",1.3 ± 0.1 pmol/mg
CC[C@H](C)[C@H](NC(=O)[C@H](CCC(=O)O)NC(=O)[C@H](CO)NC(=O)[C@@H](NC(=O)[C@H](C)N)C(C)C)C(=O)N[C@@H](CCC(N)=O)C(=O)N[C@@H](CC(C)C)C(=O)N[C@@H](CCSC)C(=O)N[C@@H](Cc1c[nH]cn1)C(=O)N[C@@H](CC(N)=O)C(=O)N[C@@H](CC(C)C)C(=O)NCC(=O)N[C@@H](CCCCN)C(=O)N[C@@H](Cc1c[nH]cn1)C(=O)N[C@@H](CC(C)C)C(=O)N[C@@H](C)C(=O)N[C@@H](CO)C(=O)N[C@H](C(=O)N[C@@H](CCC(=O)O)C(=O)N[C@@H](CCCNC(=N)N)C(=O)N[C@@H](CCSC)C(=O)N[C@@H](CCC(N)=O)C(=O)N[C@@H](Cc1c[nH]c2ccccc12)C(=O)N[C@@H](CC(C)C)C(=O)N[C@@H](CCCNC(=N)N)C(=O)N[C@@H](CCCCN)C(=O)N[C@@H](CCCCN)C(=O)N[C@@H](CC(C)C)C(=O)N[C@@H](CCC(N)=O)C(=O)N[C@@H](CC(=O)O)C(=O)N[C@H](C(=O)N[C@@H](Cc1c[nH]cn1)C(=O)N[C@@H](CC(N)=O)C(=O)N[C@@H](Cc1ccccc1)C(=O)O)C(C)C)C(C)C [PTH],stimulation of cAMP accumulation,PTH2 receptor [2],approximately 50 fold
same,stimulation of cAMP accumulation,human PTH1 receptor [3]; 1 μM peptide,approximately 50 fold
"CCCC[C@H](NC(=O)[C@H](CO)NC(=O)[C@H](CO)NC(=O)[C@H](CC(C)C)NC(=O)[C@H](Cc1c[nH]cn1)NC(=O)[C@H](CCCCN)NC(=O)CNC(=O)[C@H](CC(C)C)NC(=O)[C@H](CC(N)=O)NC(=O)[C@H](Cc1c[nH]cn1)NC(=O)[C@H](CCCC)NC(=O)[C@H](Cc1ccccc1)NC(=O)[C@H](CCC(N)=O)NC(=O)[C@@H](NC(=O)[C@H](CCC(=O)O)NC(=O)[C@@H](N)CO)[C@@H](C)CC)C(=O)N[C@@H](CCC(=O)O)C(=O)N[C@@H](CCCNC(=N)N)C(=O)N[C@H](C(=O)N[C@@H](CCC(=O)O)C(=O)N[C@@H](Cc1c[nH]c2ccccc12)C(=O)N[C@@H](CC(C)C)C(=O)N[C@@H](CCCNC(=N)N)C(=O)N[C@@H](CCCCN)C(=O)N[C@@H](CCCCN)C(=O)N[C@@H](CC(C)C)C(=O)N[C@@H](CCC(N)=O)C(=O)N[C@@H](CC(=O)O)C(=O)N[C@H](C(=O)N[C@@H](Cc1c[nH]cn1)C(=O)N[C@@H](CC(N)=O)C(=O)N[C@@H](Cc1ccc(O)cc1)C(N)=O)C(C)C)C(C)C [[Nle^8,18, Tyr^34]bPTH(3-34), [Nle^8,18, Tyr^34]bPTH(3–34) amide] (H-SEIQF[Nle]HNLGKHLSS[Nle]ERVEWLRKKLQDVHNY-NH2; N-terminus assumed)",Emax,[4],26 ± 4%
same,activation of the PTH1 receptor,"human PTH1 receptor [3]; 293PTH1 cells, cAMP",not detected
same,koff,"human PTH1 receptor [1]; estimated by Equation 4 from [125I]TIP(7–39) association, read-out: dissociation rate constant of unlabeled ligand (converted)",0.0005 s⁻¹
same,EC50,"PTH2 receptor [5]; activation of adenylyl cyclase, figures in brackets",5.2 nM
same,agonist character,PTH2 receptor [5]; cAMP,partial agonists
same,Emax,"PTH2 receptor [5]; read-out: Emax, % of response to 1 μM hPTH(1-34), intrinsic activity",37 ± 3%
same,Bmax,human PTH1 receptor [6]; homologous displacement experiments,0.7 pmol/mg
same,Kd,human PTH1 receptor [6]; reported previously,2 nM
